Data: article PMC9232612, “A phase 1b randomised controlled trial of a glucagon-like peptide-1 and glucagon receptor dual agonist IBI362 (LY3305677) in Chinese patients with type 2 diabetes” (Nature Communications, 2022)
Several values for one entry are separate records, joined by “and”; a condition that tells them apart may be missing. Equal values may be shown once.

Experiments:
[1] = system: Chinese patients with T2D; assay: Glycated haemoglobin A1c (HbA1c); format: in vivo, human; conditions: for Change from baseline to week 12 in HbA1c, single patients / HbA1c at week 12, single patients: each line a single patient; for Change from baseline in HbA1c, LS mean / Change from baseline in HbA1c, LS mean (SE) / HbA1c: ETD versus placebo, LS mean (90% CI): MMRM
Description: (§1) HbA1c (2200101, Bio-Rad, USA), blood glucose (05168791190, Roche Diagnostics, Germany), insulin (12017547122, Roche Diagnostics, Germany), C peptide (03184897190, Roche Diagnostics, Germany), total GLP-1 (GLP-1 [7–36] amide and its metabolite, GLP-1 [9–36] amide, 10-1278-01, Mercodia AB, Sweden) and OXM (AL-139, AnshLabs, USA) tests were performed according to the manufactures’ instruction manuals in a central laboratory (KingMed Diagnostics, Guangzhou, China). HbA1c was measured using a Bio-rad D-100 Haemoglobin Testing System (Bio-rad). Blood glucose was measured using a Roche Cobas c702 analyser (Roche Diagnostics). Insulin and C peptide were measured using a Roche […] analyser (Roche Diagnostics). GLP-1 and OXM were measured using a Tecan Infinite M Plex microplate reader (TECAN).
(§2) Standard non-compartmental pharmacokinetics methods were used to analyze IBI362 plasma concentration data using Pkanalix 2020R1 (Lixoft, Antony, France). Secondary efficacy outcomes included change from baseline to week 12 in HbA1c, fasting plasma glucose (FPG), fasting insulin levels, change from baseline to week 12 in post-mixed-meal tolerance test (post-MTT) glucose, insulin, C peptide, GLP-1 and OXM levels, as well as seven-point self-measured blood glucose (SMBG) profile.
(§3) The analyses for change from baseline in HbA1c, FPG, post-MTT glucose AUC0–4 h and body weight were performed using the mixed-effect model for repeated measures (MMRM) with least-squares means and standard error provided. The MMRM included the corresponding baseline value, treatment, visit and treatment-by-visit as fixed effects and patient as a random effect. Mean change or mean percent change from baseline were analysed using a restricted maximum likelihood (REML)‐based repeated measures approach in combination with the Newton Raphson Algorithm. The fix effect of visit was fitted as a repeated effect and an unstructured covariance matrix was used. In case of non-converge, matrix like Variance Components and Compound Symmetry will be tested in a subsequent order until model‐convergence is achieved. The Kenward-Roger degree of freedom was used in estimating fixed effects. No missing data imputation was conducted. For HbA1c, FPG and body weight, point estimate of treatment difference versus placebo and 90% CI were provided for each IBI362 dose group and the dulaglutide group, with nominal p values.

[2] = system: Chinese patients with T2D; assay: Mixed-meal tolerance test (MTT): plasma glucose and glucose AUC0-4 h; format: in vivo, human; conditions: for Percent change from baseline to week 12 in post-MTT glucose AUC0-4 h, LS mean: MMRM
Description: as §1, §2
as §3, with “values. […]” for “values.”
3. Standard meal test (MTT) collection measures included: insulin, C-peptide, plasma glucose, glucagon, endogenous OXM, and endogenous GLP-1. The sampling points include: fasting, 30 min, 1h, 2h, 3h and 4h.
A total of 9 mL blood will be collected from each blood collection point. See the manual of the central laboratory for the detailed operation process. Fasting state refers to fasting for 10 hours. [ The standard meal is
instant noodles. The master Kang roast beef noodles (bucket noodles) purchased by the sponsor in a unified manner are removed from the oil bag. The noodles are soaked in boiled water and then removed. The seasoning
bag is added and mixed well. The time is counted from the first bite of eating. The noodles are eaten within 10 minutes, and 200 mL of water is drunk; or the instant noodles are directly opened with 200 mL of boiled
water to ensure that the noodles are eaten and the water or soup is drunk]. Visit days when MTT test is performed: 1 day prior to Cycle 1 administration, Day 80 (D80). […]
● Test by central laboratory

With `CC(C)C[C@H](NC(=O)[C@H](CC(C)C)NC(=O)[C@H](Cc1c[nH]c2ccccc12)NC(=O)[C@H](CCC(=O)O)NC(=O)[C@@H](NC(=O)[C@H](Cc1ccccc1)NC(=O)[C@H](CCC(=O)O)NC(=O)[C@H](CCCCNC(=O)COCCOCCNC(=O)COCCOCCNC(=O)CC[C@H](NC(=O)CCCCCCCCCCCCCCCCCCC(=O)O)C(=O)O)NC(=O)[C@H](C)NC(=O)[C@H](CCCCN)NC(=O)[C@H](CCCCN)NC(=O)[C@H](CCC(=O)O)NC(=O)[C@H](CC(=O)O)NC(=O)[C@H](CC(C)C)NC(=O)[C@H](Cc1ccc(O)cc1)NC(=O)[C@H](CCCCN)NC(=O)[C@H](CO)NC(=O)[C@H](Cc1ccc(O)cc1)NC(=O)[C@H](CC(=O)O)NC(=O)[C@H](CO)NC(=O)[C@@H](NC(=O)[C@H](Cc1ccccc1)NC(=O)[C@@H](NC(=O)CNC(=O)[C@H](CCC(N)=O)NC(=O)C(C)(C)NC(=O)[C@@H](N)Cc1c[nH]cn1)[C@@H](C)O)[C@@H](C)O)C(C)C)C(=O)N[C@@H](CCC(=O)O)C(=O)NCC(=O)NCC(=O)N1CCC[C@H]1C(=O)N[C@@H](CO)C(=O)N[C@@H](CO)C(=O)NCC(N)=O` [IBI362] the “Percent of patients with change from baseline to week 12 in HbA1c <1.0%” value (from here on “Percent of patients with change … in HbA1c <1.0%”) ([1]; 3.0 mg cohort, n=8) was 0.0%, the “Percent of patients with change from baseline to week 12 in HbA1c ≥1.0% and <1.5%” value ([1]; 3.0 mg cohort, n=8) was 37.5% and the “Percent of patients with change from baseline to week 12 in HbA1c ≥1.5% and <2.0%” value ([1]; 3.0 mg cohort, n=8) was 25.0%. For the same compound, the “Percent of patients with change from baseline to week 12 in HbA1c ≥2.0%” value (shortened to “Percent of patients with change … in HbA1c ≥2.0%”) ([1]; 3.0 mg cohort, n=8) was 25.0%, the “Percent of patients with change … in HbA1c <1.0%” value ([1]; 4.5 mg cohort, n=8) was 0.0% and the “Percent of patients with change from baseline to week 12 in HbA1c ≥1.0% and <1.5%” value ([1]; 4.5 mg cohort, n=8) was 12.5%. For the same compound, the “Percent of patients with change from baseline to week 12 in HbA1c ≥1.5% and <2.0%” value ([1]; 4.5 mg cohort, n=8) was 25.0%, the “Percent of patients with change … in HbA1c ≥2.0%” value ([1]; 4.5 mg cohort, n=8) was 37.5% and the “Percent of patients with change … in HbA1c <1.0%” value ([1]; 6.0 mg cohort, n=8) was 25.0%. For the same compound, the “Percent of patients with change from baseline to week 12 in HbA1c ≥1.0% and <1.5%” value ([1]; 6.0 mg cohort, n=8) was 0.0%, the “Percent of patients with change from baseline to week 12 in HbA1c ≥1.5% and <2.0%” value ([1]; 6.0 mg cohort, n=8) was 37.5% and the “Percent of patients with change … in HbA1c ≥2.0%” value ([1]; 6.0 mg cohort, n=8) was 37.5%. For the same compound, the “Percent of patients with change … in HbA1c <1.0%” value ([1]; all IBI362 cohorts, n=24) was 8.3%, the “Percent of patients with change from baseline to week 12 in HbA1c ≥1.0% and <1.5%” value ([1]; all IBI362 cohorts, n=24) was 16.7% and the “Percent of patients with change from baseline to week 12 in HbA1c ≥1.5% and <2.0%” value ([1]; all IBI362 cohorts, n=24) was 29.2%. The “Percent of patients with change … in HbA1c ≥2.0%” value ([1]; all IBI362 cohorts, n=24) was 33.3%, the “Change from baseline to week 12 in HbA1c, single patients” value ([1]; 3.0 mg cohort) was -2.8% and -1.4% and -1.0% and -1.9% and -1.8% and -2.7% and -1.3% and the “HbA1c at week 12, single patients” value ([1]; 3.0 mg cohort) was 6.4% and 6.1% and 8.6% and 7.3% and 6.8% and 6.7% and 7.4%. For the same compound, the “Change from baseline to week 12 in HbA1c, single patients” value ([1]; 4.5 mg cohort) was -1.2% and -1.7% and -2.3% and -3.3% and -3.7%, the “HbA1c at week 12, single patients” value ([1]; 4.5 mg cohort) was 6.1% and 6.3% and 5.7% and 6.9% and 6.8% and 6.0% and the “HbA1c at week 12, single patients” value ([1]; 6.0 mg cohort) was 7.0% and 6.8% and 5.9% and 6.1% and 7.1% and 5.8% and 7.8%. The “Change from baseline in HbA1c, LS mean” value ([1]; week 4, 3.0 mg cohort, n=8) was -0.38%, the “Change from baseline in HbA1c, LS mean” value ([1]; week 4, 4.5 mg cohort, n=8) was -0.80% and the “Change from baseline in HbA1c, LS mean” value ([1]; week 4, 6.0 mg cohort, n=8) was -0.61%. For the same compound, the “Change from baseline in HbA1c, LS mean” value ([1]; week 8, 3.0 mg cohort, n=8) was -0.98%, the “Change from baseline in HbA1c, LS mean” value ([1]; week 8, 4.5 mg cohort, n=8) was -1.58% and the “Change from baseline in HbA1c, LS mean” value ([1]; week 8, 6.0 mg cohort, n=8) was -1.32%. For the same compound, the “Change from baseline in HbA1c, LS mean (SE)” value (“Change from baseline … (SE)” below) ([1]; week 12, 3.0 mg cohort, n=8) was -1.46%, the “HbA1c: ETD versus placebo, LS mean (90% CI)” value (shortened to “HbA1c … (90% CI)”) ([1]; week 12, 3.0 mg cohort) was −0.59% and the “Change from baseline … (SE)” value ([1]; week 12, 4.5 mg cohort, n=8) was -2.23%. The “HbA1c … (90% CI)” value ([1]; week 12, 4.5 mg cohort) was −1.35%, the “Change from baseline … (SE)” value ([1]; week 12, 6.0 mg cohort, n=8) was -1.66% and the “HbA1c … (90% CI)” value ([1]; week 12, 6.0 mg cohort) was −0.79%. The “patients achieving HbA1c level of 6.5% or lower” value ([1]; week 12, all IBI362 cohorts) was “nine”, the “patients achieving ≥1.5% reductions in HbA1c from baseline” value ([1]; week 12, all IBI362 cohorts, n=24) was 62.5% and the “Percent change from baseline to week 12 in post-MTT glucose AUC0-4 h, LS mean” value (“Percent change from baseline” below) ([2]; 3.0 mg cohort, n=8) was −37.0% and -36.99%. The “Percent change from baseline” value ([2]; 4.5 mg cohort, n=8) was −38.9% and -38.89%, the “Percent change from baseline” value ([2]; 6.0 mg cohort, n=8) was −43.9% and -43.88% and the “Glucose during MTT, mean” value ([2]; week 12, 0 min, 3.0 mg cohort, n=7) was 7.91 mmol/L. The “Glucose during MTT, mean” value ([2]; week 12, 0 min, 4.5 mg cohort, n=5) was 7.75 mmol/L, the “Glucose during MTT, mean” value ([2]; week 12, 0 min, 6.0 mg cohort, n=8) was 7.11 mmol/L and the “Glucose during MTT, mean” value ([2]; week 12, 30 min, 3.0 mg cohort, n=7) was 10.06 mmol/L. For the same compound, the “Glucose during MTT, mean” value ([2]; week 12, 30 min, 4.5 mg cohort, n=5) was 9.84 mmol/L, the “Glucose during MTT, mean” value ([2]; week 12, 30 min, 6.0 mg cohort, n=8) was 9.53 mmol/L and the “Glucose during MTT, mean” value ([2]; week 12, 60 min, 3.0 mg cohort, n=7) was 13.39 mmol/L. The “Glucose during MTT, mean” value ([2]; week 12, 60 min, 4.5 mg cohort, n=5) was 11.82 mmol/L, the “Glucose during MTT, mean” value ([2]; week 12, 60 min, 6.0 mg cohort, n=8) was 11.83 mmol/L and the “Glucose during MTT, mean” value ([2]; week 12, 120 min, 3.0 mg cohort, n=7) was 11.24 mmol/L. For the same compound, the “Glucose during MTT, mean” value ([2]; week 12, 120 min, 4.5 mg cohort, n=5) was 10.28 mmol/L, the “Glucose during MTT, mean” value ([2]; week 12, 120 min, 6.0 mg cohort, n=8) was 9.52 mmol/L and the “Glucose during MTT, mean” value ([2]; week 12, 180 min, 3.0 mg cohort, n=7) was 8.73 mmol/L. The “Glucose during MTT, mean” value ([2]; week 12, 180 min, 4.5 mg cohort, n=5) was 8.34 mmol/L, the “Glucose during MTT, mean” value ([2]; week 12, 180 min, 6.0 mg cohort, n=8) was 7.51 mmol/L and the “Glucose during MTT, mean” value ([2]; week 12, 240 min, 3.0 mg cohort, n=7) was 7.23 mmol/L. The “Glucose during MTT, mean” value ([2]; week 12, 240 min, 4.5 mg cohort, n=5) was 7.08 mmol/L and the “Glucose during MTT, mean” value ([2]; week 12, 240 min, 6.0 mg cohort, n=8) was 6.63 mmol/L.
